Laboratory results taken from PubChem BioAssay AID328 (DTP/NCI, 2004).
Toxic doses and inconclusive results are not listed. Rule for the calls: active = survival T/C of 150% or more; inactive = T/C below 125% in these data. Positions of bridges follow the written chain, without caps; N, C: chain ends. Non-standard residues stand in square brackets, D forms with d. Residues, ends and D or L forms follow the SMILES beside them. ξ: configuration not given here. Pip(4-oxo) = O=C1CCN[CH](C(=O)O)C1; NMeV = CN[CH](C(=O)O)C(C)C; ξK = NCCCCC(N)C(=O)O; Sar = CNCC(=O)O

Tested on: BDF1 mice, P388 leukemia ip, median survival T/C
Test: NCI In Vivo Anticancer Drug Screen. Data for tumor model P388 Leukemia (intraperitoneal) in B6D2F1 (BDF1) mice
Conditions: endpoint: median survival time, higher = longer survival
Summary of the method: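 Transplantable tumour in mice; compound vs vehicle dosing; survival scored; ratio of treated to control reported.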

[1] = dose: 100.0 mg/kg/injection, schedule: Q01DX009 (ip), vehicle: saline with Tween-80
[2] = dose: 100.0 mg/kg/injection, schedule: Q04DX003 (ip), vehicle: saline with Tween-80
[3] = dose: 200.0 mg/kg/injection, schedule: Q01DX009 (ip), vehicle: saline with Tween-80
[4] = dose: 200.0 mg/kg/injection, schedule: Q04DX003 (ip), vehicle: saline with Tween-80
[5] = dose: 400.0 mg/kg/injection, schedule: Q01DX009 (ip), vehicle: saline with Tween-80
[6] = dose: 400.0 mg/kg/injection, schedule: Q04DX003 (ip), vehicle: saline with Tween-80
[7] = dose: 50.0 mg/kg/injection, schedule: Q01DX009 (ip), vehicle: saline with Tween-80

Measured: T/C

Cc1cc(C(=O)N/N=C/c2ccccc2O)c2cc(Br)ccc2n1
inactive: dose: 0.78 mg/kg/injection, schedule: Q01DX009 (ip), vehicle: saline with Tween-80 95 % of control | dose: 1.56 mg/kg/injection, schedule: Q01DX009 (ip), vehicle: saline with Tween-80 95 % of control | dose: 3.12 mg/kg/injection, schedule: Q01DX009 (ip), vehicle: saline with Tween-80 97 % of control

COc1cccc(OC)c1-c1oc2ccccc2c(=O)c1O
inactive: [1] 107 % of control | [2] 104 % of control | [3] 100 % of control | [4] 109 % of control | [5] 100 % of control | [6] 100 % of control

O=C(O)C1C2C=CC(C2)C1C(F)(F)C(F)(F)C(F)(F)F (centres undefined)
inactive: dose: 100.0 mg/kg/injection, schedule: Q01DX001 (ip), vehicle: saline with Tween-80 100 % of control | dose: 200.0 mg/kg/injection, schedule: Q01DX001 (ip), vehicle: saline with Tween-80 104 % of control | dose: 400.0 mg/kg/injection, schedule: Q01DX001 (ip), vehicle: saline with Tween-80 118 % of control

Cc1cccnc1NC(=O)/C=C/C(=O)O
inactive: dose: 3.12 mg/kg/injection, schedule: Q01DX001 (ip), vehicle: saline 100 % of control | dose: 6.25 mg/kg/injection, schedule: Q01DX001 (ip), vehicle: saline 100 % of control | dose: 12.5 mg/kg/injection, schedule: Q01DX001 (ip), vehicle: saline 100 % of control | dose: 12.5 mg/kg/injection, schedule: Q01DX009 (ip), vehicle: saline 95 % of control | dose: 12.5 mg/kg/injection, schedule: Q04DX003 (ip), vehicle: saline 100 % of control | dose: 18.0 mg/kg/injection, schedule: Q01DX001 (ip), vehicle: saline 109 % of control | dose: 25.0 mg/kg/injection, schedule: Q01DX009 (ip), vehicle: saline 100 % of control | dose: 28.0 mg/kg/injection, schedule: Q01DX001 (ip), vehicle: saline 100 % of control | dose: 40.0 mg/kg/injection, schedule: Q01DX001 (ip), vehicle: saline 104 % of control

Cc1ccc(C(CCC#N)OC(C)C)cc1 (centres undefined)
inactive: dose: 100.0 mg/kg/injection, schedule: Q01DX009 (ip), vehicle: Klucel (hydroxypropylcellulose) (HPC) 86 % of control | dose: 100.0 mg/kg/injection, schedule: Q04DX003 (ip), vehicle: Klucel (hydroxypropylcellulose) (HPC) 100 % of control | dose: 200.0 mg/kg/injection, schedule: Q01DX009 (ip), vehicle: Klucel (hydroxypropylcellulose) (HPC) 109 % of control | dose: 200.0 mg/kg/injection, schedule: Q04DX003 (ip), vehicle: Klucel (hydroxypropylcellulose) (HPC) 109 % of control | dose: 400.0 mg/kg/injection, schedule: Q01DX009 (ip), vehicle: Klucel (hydroxypropylcellulose) (HPC) 113 % of control | dose: 400.0 mg/kg/injection, schedule: Q04DX003 (ip), vehicle: Klucel (hydroxypropylcellulose) (HPC) 109 % of control

CCCCOC(=O)c1ccc(OP(=O)(N(C)C)N(C)C)cc1
inactive: [7] 100 % of control | [1] 94 % of control | [3] 87 % of control

CS(=O)(=NC(=S)Nc1ccccc1)c1ccccc1 (centres undefined)
inactive: dose: 75.0 mg/kg/injection, schedule: Q01DX001 (ip), vehicle: other 115 % of control | dose: 150.0 mg/kg/injection, schedule: Q01DX001 (ip), vehicle: other 95 % of control | dose: 300.0 mg/kg/injection, schedule: Q01DX001 (ip), vehicle: other 100 % of control

Cc1ccc(N=C=O)cc1[N+](=O)[O-]
inactive: dose: 25.0 mg/kg/injection, schedule: Q01DX009 (ip), vehicle: gum acacia 100 % of control | dose: 50.0 mg/kg/injection, schedule: Q01DX009 (ip), vehicle: gum acacia 100 % of control | dose: 100.0 mg/kg/injection, schedule: Q04DX003 (ip), vehicle: gum acacia 91 % of control | dose: 200.0 mg/kg/injection, schedule: Q04DX003 (ip), vehicle: gum acacia 95 % of control | dose: 400.0 mg/kg/injection, schedule: Q04DX003 (ip), vehicle: gum acacia 95 % of control

O=C1CSC(=S)N1c1ccco1
inactive: dose: 50.0 mg/kg/injection, schedule: Q01DX001 (ip), vehicle: Klucel (hydroxypropylcellulose) (HPC) 100 % of control | dose: 100.0 mg/kg/injection, schedule: Q01DX001 (ip), vehicle: Klucel (hydroxypropylcellulose) (HPC) 95 % of control | dose: 100.0 mg/kg/injection, schedule: Q04DX003 (ip), vehicle: saline 104 % of control | dose: 200.0 mg/kg/injection, schedule: Q01DX001 (ip), vehicle: Klucel (hydroxypropylcellulose) (HPC) 95 % of control | dose: 200.0 mg/kg/injection, schedule: Q04DX003 (ip), vehicle: saline 100 % of control | dose: 400.0 mg/kg/injection, schedule: Q04DX003 (ip), vehicle: saline 100 % of control

CC[C@@]1(O)C[C@H](OC2CC(N(C)C)C(O)C(C)O2)c2c(cc3c(c2O)C(=O)c2c(O)ccc(O)c2C3=O)[C@H]1C(=O)OC (some centres undefined)
active: dose: 20.0 mg/kg/injection, schedule: Q04DX003 (ip), vehicle: other 157 % of control

CC(=N\O)/C(=N\O)C(=O)c1ccccc1
inactive: dose: 100.0 mg/kg/injection, schedule: Q01DX009 (ip), vehicle: other 91 % of control | [2] 95 % of control | [4] 95 % of control | [6] 90 % of control

O=C(Nc1ccccc1)C1=C(Nc2ccccc2)CSC1
inactive: dose: 25.0 mg/kg/injection, schedule: Q01DX009 (ip), vehicle: saline with Tween-80 100 % of control | dose: 25.0 mg/kg/injection, schedule: Q04DX003 (ip), vehicle: saline with Tween-80 99 % of control | [7] 91 % of control | dose: 50.0 mg/kg/injection, schedule: Q04DX003 (ip), vehicle: saline with Tween-80 99 % of control | [1] 94 % of control | [2] 96 % of control | [3] 102 % of control | [4] 105 % of control | [5] 110 % of control | [6] 103 % of control

NCCCCC(N)C(=O)NCC(=O)O (centres undefined) (H-[ξK]-Gly-OH)
inactive: dose: 50.0 mg/kg/injection, schedule: Q01DX005 (ip), vehicle: saline 95 % of control | dose: 100.0 mg/kg/injection, schedule: Q01DX005 (ip), vehicle: saline 102 % of control | dose: 200.0 mg/kg/injection, schedule: Q01DX005 (ip), vehicle: saline 88 % of control

O=C1c2c(O)ccc(O)c2C(=O)c2c(NCCNCCO)ccc(NCCNCCO)c21
inactive: dose: 3.13 mg/kg/injection, schedule: Q01DX009 (ip), vehicle: water 90 % of control
active: dose: 0.78 mg/kg/injection, schedule: Q01DX009 (ip), vehicle: water 270 % of control | dose: 1.56 mg/kg/injection, schedule: Q01DX009 (ip), vehicle: water 181 % of control

CC(C)C1NC(=O)C(N)C(C)OC(=O)C(C(C)C)N(C)C(=O)CN(C)C(=O)C2CC(=O)CCN2C1=O (centres undefined) (tested in a mixture with another compound) (H-TV[Pip(4-oxo)][Sar][NMeV]; ester 1-C; configuration not given here)
active: dose: 50.0 micrograms/kg/injection, schedule: Q01DX009 (ip), vehicle: saline + alcohol 168 % of control | dose: 75.0 micrograms/kg/injection, schedule: Q01DX009 (ip), vehicle: saline + alcohol 203 % of control | dose: 100.0 micrograms/kg/injection, schedule: Q01DX009 (ip), vehicle: saline + alcohol 192 % of control | dose: 150.0 micrograms/kg/injection, schedule: Q01DX009 (ip), vehicle: saline + alcohol 230 % of control
